Source: patent publication US20220356147A1, “COMPOUNDS AND METHODS FOR POTENTIATING COLISTIN ACTIVITY” (University of Notre Dame du Lac, priority 2019, published 2022)
Where “and” joins values, the source holds several entries; their conditions need not be identical. Identical values can stand only once. Like-named read-outs stand apart in the source and are kept apart here.

Assays:
[1] = tested on: A. baumannii 4106 (AB4106); experiment: Broth microdilution, colistin potentiation; type: cell-based
Procedure: (§1) Broth microdilution method for measurement of colistin potentiation: Bacteria were cultured for 4 to 6 hours in CAMHB and diluted to 1.04×10^6 CFU/mL for AB 4106 and 1.96×10^6 CFU/mL for KP B9 in fresh CAMHB. To aliquots (4 mL) was added compound from stock solutions in DMSO. One aliquot was not dosed to allow measurement of the colistin MIC in the absence of compound. A 1 mL aliquot of each sample was dosed with colistin, and from this 200 μL was dispensed into the first row of a 96-well microtiter plate in which all but the final row of subsequent wells was prefilled with 100 μL of the corresponding compound dosed bacterial suspension The final row was filled with media to act as a sterility control and blank. Row one wells were mixed 6-7 times, then, 100 μL was withdrawn and transferred to row two. Row two wells were mixed 6-7 times followed by a 100 μL transfer from row two to row three. This procedure was used to serially dilute the rest of the rows of the microtiter plate, excluding the last prefilled row, which was used to measure growth in the presence of compound alone. Plates were then sealed with GLAD
(§2) Press'n Seal and incubated under stationary conditions at 37° C. […] MIC values were determined as the minimum concentration required to achieve 90% growth inhibition compared to growth in untreated wells.

[2] = tested on: AB 4106; experiment: Broth microdilution, standalone MIC of compound; type: cell-based, A. baumannii; settings: standalone, no colistin, read-out: MIC of compound alone, AB 4106
Procedure: Broth microdilution method for the determination of minimum inhibitory concentrations: Bacteria were cultured for 4 to 6 hours in CAMHB and subcultured to 1.04×10^6 CFU/mL for AB 4106 and 1.96×10^6 CFU/mL for KP B9 in fresh CAMHB. To aliquots (1 mL) was added compound from stock solutions in DMSO, such that the compound concentration equaled the highest concentration tested. Samples were then dispensed (200 μL) into the first row of a 96-well microtiter plate in which all but the final row of subsequent wells were prefilled with 100 μL of the untreated bacterial subculture. The final row was filled with media to act as a sterility control and blank. Row one wells were mixed 6-7 times, then, 100 μL was withdrawn and transferred to row two. Row two wells were mixed 6-7 times followed by a 100 μL transfer from row two to row three. This procedure was used to serially dilute the rest of the rows of the microtiter plate, excluding the last prefilled row, which was used to measure growth in the absence of compound. Plates were then sealed with GLAD Press'n Seal and incubated under stationary conditions at 37 C. […] MIC values were determined as the minimum concentration required to achieve 90% growth inhibition compared to growth in untreated wells.

[3] = tested on: AB 3941; experiment: Colistin potentiation, colistin-resistant isolate panel; type: cell-based, A. baumannii
[4] = tested on: AB 3942; experiment: as above; type: cell-based, A. baumannii
[5] = tested on: AB 4112; experiment: as above; type: cell-based, A. baumannii
[6] = tested on: AB 4119; experiment: as above; type: cell-based, A. baumannii
[7] = tested on: AB 17978 mcr-1; experiment: as above; type: cell-based, A. baumannii
[8] = tested on: AB4106 and KPB9; experiment: Initial screen for colistin resistance suppression, statements in words for both strains; type: cell-based, A. baumannii and K. pneumoniae; settings: compound at 5 μM
Procedure: as §1, §2

[9] = tested on: K. pneumoniae B9 (KPB9); experiment: Broth microdilution, colistin potentiation; type: cell-based; design: Colistin MIC against KPB9: unit not given here
Procedure: as §1, §2

[10] = compound at 5 μM, colistin alone 2048 μg/mL
[11] = in presence of compound at 1 μM
[12] = in presence of compound at 3 μM
[13] = in presence of compound at 5 μM

Molecule | Colistin MIC fold reduction, AB 4106 ([1]; compound at 1 μM) [fold] | Colistin MIC fold reduction, AB 4106 ([1]; compound at 3 μM) [fold] | Colistin MIC fold reduction, AB 4106 [1, 10] [fold] | Colistin potentiation activity in words, compared to IMD-0354 [8] | MIC ([2]; Acinetobacter baumannii, 16 h) [µM] | also measured
O=C(Nc1cc(C(F)(F)F)ccc1F)c1cc(Cl)ccc1O [Compound 28] | 256 | 1024 | 1024 | activity equivalent to IMD-0354 | – | Colistin MIC against AB 4106 [1, 11]: 8 µg/mL; Colistin MIC against AB 4106 [1, 12]: 2 µg/mL; Colistin MIC against AB 4106 [1, 13]: 2 µg/mL; MIC [2]: >200 µM; Colistin MIC against AB 3941 ([3]; compound at 5 μM): 2 µg/mL; Colistin MIC against AB 3942 ([4]; compound at 5 μM): 2 µg/mL; Colistin MIC against AB 4112 ([5]; compound at 5 μM): 2 µg/mL; Colistin MIC against AB 4119 ([6]; compound at 5 μM): 1 µg/mL; Colistin MIC against AB 17978 mcr-1 ([7]; compound at 5 μM): 0.25 µg/mL
O=C(Nc1cc(C(F)(F)F)cc(C(F)(F)F)c1)c1cc(I)ccc1O [Compound 10] | 128 | 1024 | 4096 | essentially equipotent activity to IMD-0354 | > 200 | Colistin potentiation activity in words, AB4106 ([1]; compound at 5 μM): superior activity to IMD-0354; Colistin potentiation activity in words, KPB9 ([9]; compound at 5 μM): equipotent activity
O=C(Nc1cc(Br)cc(Br)c1)c1cc(I)ccc1O [Compound 52, N-(3,5-dibromophenyl)-2-hydroxy-5-iodobenzamide] | 256 | 1024 | 2048 | – | > 200 | ability to break colistin resistance, KPB9 ([9]; compound at 500 nM): retained the ability to break colistin resistance; Colistin MIC fold reduction, AB 3941 ([3]; compound at 5 μM): (1024) fold; Colistin MIC fold reduction, AB 3942 ([4]; compound at 5 μM): (≥4096) fold; Colistin MIC fold reduction, AB 4112 ([5]; compound at 5 μM): (2048) fold; Colistin MIC fold reduction, AB 4119 ([6]; compound at 5 μM): (512) fold; Colistin MIC fold reduction, AB 17978 mcr-1 ([7]; compound at 5 μM): (256) fold
COc1ccc(Cl)cc1C(=O)Nc1cc(C(F)(F)F)cc(C(F)(F)F)c1 [Compound 2] | – | – | ≤ 16 | abrogated activity | > 200 | –
O=C(Nc1cc(C(F)(F)F)cc(C(F)(F)F)c1)c1ccc(O)c(Cl)c1 [Compound 4, N-(3,5-bis(trifluoromethyl)phenyl)-3-chloro-4-hydroxybenzamide] | – | – | ≤ 16 | abolished activity | > 200 | –
O=C(Nc1cc(C(F)(F)F)cc(C(F)(F)F)c1)c1ccc(C(F)(F)F)cc1O [Compound 15] | 128 | 512 | 2048 | equipotent activity to IMD-0354 | > 200 | –
O=C(Nc1cc(C(F)(F)F)cc(C(F)(F)F)c1)c1cc(Cl)cc(Cl)c1O [Compound 14] | 32 | 512 | 512 | four-fold less active than 15 | 100 | –
O=C(Nc1ccc(F)cc1C(F)(F)F)c1cc(Cl)ccc1O [Compound 27] | – | – | 256 | – | > 200 | Colistin MIC against KPB9 ([9]; compound at 5 μM): 1
Cc1ccc(NC(=O)c2cc(Cl)ccc2O)cc1C [Compound 31] | – | – | 32 | – | > 200 | Colistin MIC against AB 4106 ([1]; compound at 5 μM, text of b125): 64; Colistin MIC against KPB9 ([9]; compound at 5 μM): 16
O=C(Nc1ccc(C(F)(F)F)cc1C(F)(F)F)c1cc(Cl)ccc1O [Compound 18] | 256 | 1024 | 1024 | retained activity against KPB9 and AB4106 equivalent to IMD-0354 | > 200 | –
O=C(Nc1cc(C(F)(F)F)cc(C(F)(F)F)c1Br)c1cc(Cl)ccc1O [Compound 24] | 512 | 2048 | 4096 | – | – | Colistin MIC against AB 4106 [1, 11]: 4 µg/mL; Colistin MIC against AB 4106 [1, 12]: 1 µg/mL; Colistin MIC against AB 4106 [1, 13]: 1 µg/mL and 0.5 µg/mL; MIC [2]: >200 µM; Colistin MIC against AB 3941 ([3]; compound at 5 μM): 1 µg/mL; Colistin MIC against AB 3942 ([4]; compound at 5 μM): 0.5 µg/mL; Colistin MIC against AB 4112 ([5]; compound at 5 μM): 0.25 µg/mL; Colistin MIC against AB 4119 ([6]; compound at 5 μM): 0.125 µg/mL; Colistin MIC against AB 17978 mcr-1 ([7]; compound at 5 μM): 0.25 µg/mL
O=C(Nc1cc(C(F)(F)F)ccc1C(F)(F)F)c1cc(Cl)cc(Cl)c1O [Compound 61, N-(2,5-bis(trifluoromethyl)phenyl)-3,5-dichloro-2-hydroxybenzamide] | – | – | ≤ 16 | returned equipotent activity | > 200 | –
O=C(Nc1cc(C(F)(F)F)cc(C(F)(F)F)c1)c1cc(-c2ccccc2)ccc1O [Compound 13] | 32 | 256 | 512 | – | – | Colistin MIC against AB 4106 [1, 11]: 64 µg/mL; Colistin MIC against AB 4106 [1, 12]: 8 µg/mL; Colistin MIC against AB 4106 [1, 13]: 4 µg/mL; MIC [2]: >200 µM; Colistin MIC against AB 3941 ([3]; compound at 5 μM): 16 µg/mL; Colistin MIC against AB 3942 ([4]; compound at 5 μM): 32 µg/mL; Colistin MIC against AB 4112 ([5]; compound at 5 μM): 8 µg/mL; Colistin MIC against AB 4119 ([6]; compound at 5 μM): 2 µg/mL; Colistin MIC against AB 17978 mcr-1 ([7]; compound at 5 μM): 4 µg/mL
O=C(Nc1cc(C(F)(F)F)cc(C(F)(F)F)c1)c1ccccc1O [Compound 6] | – | 512 | 512 | essentially equipotent activity to IMD-0354 | > 200 | –
Cc1ccc(NC(=O)c2cc(Cl)ccc2O)cc1Br [Compound 32] | – | – | 32 | – | > 200 | Colistin MIC against KPB9 ([9]; compound at 5 μM): 8
Nc1cc(NC(=O)c2cc(Cl)ccc2O)ccc1F [Compound 36, N-(3-amino-4-fluorophenyl)-5-chloro-2-hydroxybenzamide] | – | – | ≤ 16 | Neither compound displayed significant activity | > 200 | –
O=C(Nc1cc(C(F)(F)F)ccc1C(F)(F)F)c1cc(Cl)ccc1O [Compound 17] | 128 | 512 | 1024 | retained activity against KPB9 and AB4106 equivalent to IMD-0354 | > 200 | –
O=C(Nc1cc(C(F)(F)F)cc(C(F)(F)F)c1)c1cccc(Cl)c1O [Compound 5] | ≤ 16 | 256 | 512 | essentially equipotent activity to IMD-0354 | 100 | –
COc1cc(NC(=O)c2cc(Cl)ccc2O)cc(OC)c1 [Compound 19] | – | – | ≤ 16 | bereft of activity | > 200 | –
O=C(Nc1cc(C(F)(F)F)cc(C(F)(F)F)c1)c1cccc(Cl)c1 [Compound 1] | – | – | ≤ 16 | abrogated activity | > 200 | –
colistin [reference compound] | – | – | – | – | – | MIC of colistin alone, AB 3941 ([3]; absence of adjuvant): 1024 µg/mL; MIC of colistin alone, AB 3942 ([4]; absence of adjuvant): > 2048 µg/mL; MIC of colistin alone, AB 4112 ([5]; absence of adjuvant): 2048 µg/mL; MIC of colistin alone, AB 4119 ([6]; absence of adjuvant): 1024 µg/mL; MIC of colistin alone, AB 17978 mcr-1 ([7]; absence of adjuvant): 64 µg/mL
